Earlier results in patent EP3865125A1, “PHARMACEUTICAL COMPOSITION COMPRISING ELIGLUSTAT” (Kashiv Biosciences, LLC, priority 2020, dated 2021).
Where two headings read alike, the source gives them in different places.

Columns and labels:
[1] = rats, 50-mg/kg dose
[2] = dogs, 50-mg/kg dose
[3] = mice, 50-mg/kg dose
[4] = not given; remark: listed apart in the source

oral bioavailability [1]: 39% | absolute bioavailability (CERDELGA capsule, CHMP assessment report): 4.49% ± 4.13% | systemic exposure AUC0-12 at steady state compared to after the first dose (AUC0-inf) (multiple oral doses of 84 mg twice daily in EMs): up to 2 fold | oral bioavailability (oral route, significant first pass metabolism): less than 5% | oral bioavailability [2]: 42% | oral bioavailability [3]: 8% | solubility [4]: high solubility
Compound: CCCCCCCC(=O)N[C@H](CN1CCCC1)[C@H](O)c1ccc2c(c1)OCCO2 [Eliglustat]
